Laboratory results reported in patent US5629298A, “Adenosine as a positive inotrop in the compromised heart” (University of Massachusetts Medical Center, priority 1995, dated 1997).
Like-named read-outs stand apart in the source and are kept apart here.

How the values were obtained:
[1] = test system: cultured ventricular myocytes; experiment: cAMP content of cultured ventricular myocytes (125I-cAMP RIA); format: cell-based, rat; details: 1 μM DMPX (FIG. 12)
Method: When myocytes were to be used for biochemical studies, each of the culture dishes was preincubated for 2 hours with 1 ml of MEM containing 33 μg of laminin in a 37° C. incubator gassed with 5% CO2 in room air. The laminin solution was removed prior to myocyte seeding. After seeding, the dishes were incubated for an additional 2 hours. The settling and short term culture procedures were performed to purify the myocytes so that >95% of the myocytes adhering to the dishes were rod shaped.
Cyclic AMP levels were determined in cultures of ventricular myocytes according to the following method. After the 2-hour incubation period, the MEM was aspirated and replaced with 2 ml of fresh MEM. Adenosine agonists, ISO, or adenosine antagonists were added to the medium bathing the cells at the concentrations and times indicated. The experiment was terminated by removing the medium from the dish and adding 200 μl of 1N HCl over the cultured myocyte surface. The dishes were then frozen in liquid N2 and stored at -70° C. or held on ice momentarily until extraction was initiated.
For assay, the contents of the dishes were transferred (using 1 ml of distilled/deionized H2 O) into microcentrifuge tubes. The extracts were heated for 1 hour at 57° C. and sonicated for 10 minutes. The extracts were then centrifugated at 14,000 x g for 15 minutes. The supernatant was removed, evaporated, reconstituted in 500 μl of 50 mM sodium acetate buffer and assayed for cAMP using an ^125 I-cAMP RIA kit (Amersham). The pellet was solubilized with 0.1N NaOH and protein determined. The cAMP values are reported in pmol cAMP/mg protein of the extract pellet (total cell protein). This cAMP assay procedure routinely provided recovery values in excess of 90%.

rat ventricular myocytes = experiment: Contractile function of individual ventricular myocytes (line scan camera edge detection, paced at 0.5 Hz); format: cell-based; details: for activation at 10 µM: Rattus norvegicus, Ventricular myocyte
Method: Primary cultures of adult rat ventricular myocytes were prepared essentially according to previously described methods (Romano et al., Am. J. Physiol. 257:H1088 (1989)). Two male Sprague-Dawley rats (Charles River, Wilmington, Mass. or Harlan, Indianapolis, Ind.) were decapitated, and the hearts were rapidly excised and constant pressure (70 cm H2) and nonrecirculated) perfused for 10 minutes through the aortas with filtered (0.45 μm membrane filter) perfusing solution (NaCl, 118 mM; glucose, 10 mM; NaHCO3 25 mM; KCl, 4.69 mM; MgSO4 1.18 mM; and KH2 PO4, 1.18 mM; (pH 7.4)), to which […] was added, at 37° C. After equilibration, the hearts were constant pressure perfused with fresh physiological saline ("PS") containing no added Ca^2+ until spontaneous contractions ceased (i.e., ~30 seconds). The hearts were then perfused for 4-10 minutes in a nonrecirculating manner with PS containing 0.73 mg/ml collagenase, 0.16 mg/ml hyaluronidase, 1 mg/ml recrystallized bovine serum albumin ("BSA") and 48.4 μM Ca^2+ at a rate of 3-4 ml/min/heart. Ventricles, free of atria, were removed from the perfusion system, cut into 8 pieces and placed in a 50 ml Erlenmeyer flask with 5 ml of PS containing 0.73 mg/ml collagenase, 0.16 mg/ml hyaluronidase, 2.5 mg/ml BSA, and 50 μM Ca^2+ (incubation solution). The flask was gently shaken (40 cycles/min) in a reciprocating water bath with continuous gassing (95% O2, 5% CO2) for 7 minutes at 37° C. The incubation solution was aspirated and this shaking procedure was repeated with fresh incubation solution 3-5 times depending on the likelihood that the tissue was ready to dissociate. After the final incubation period, the solution was aspirated and replaced with 10 ml of fresh incubation solution. The flask was then shaken rapidly (120 cycles/min) for 10 minutes with gassing to dissociate the myocytes. The flask contents were filtered through a 250 μm nylon mesh into a 50 ml polypropylene centrifuge tube, to which 40 ml of PS containing 5.95 mg/ml BSA and 99.7 μm Ca^2+ (wash solution) was gradually added.
The myocytes were allowed to settle for 15 minutes, and the upper two thirds of the wash solution was aspirated. Upon the addition of 30-35 ml of wash solution, this settling step was repeated. The wash solution was aspirated and the myocyte pellet was resuspended in 10 ml of minimum essential medium ("MEM"). The myocyte suspension was allowed to settle for 5 minutes and then brought to a final volume of 22 ml with MEM. Two milliliters of the myocyte suspension was seeded onto each of 60 mm culture dishes containing 2 ml of MEM.
The contractile function of individual myocytes was assessed by dispersing 50-100 cells in a 506 μl myocyte chamber (11×23×2 mm deep). The chamber (FIG. 1) was continuously suffused (850 μl/min) with fresh suffusion solution ("SS") in mM: 136.4 NaCl, 4.7 KCl, 1.0 CaCl2, 10 hydroxyethylpiperzine-ethanesulfonicacid (HEPES), 1.0 NaHCO3, 1.2 MgSO4, 1.2 KH2 PO4, 10 glucose, 0.6 ascorbate, 1.0 pyruvate) at 20° C. The chamber was mounted on an inverted microscope stage and contained platinum wire electrodes for initiating myocyte contraction at 0.5 Hz (voltage 10% above threshold for 5 msec duration).
The image of the myocyte was projected via an inverted microscope at 300× onto a line scan camera (Fairchild, Model 1600R) containing a linear array (1×3456) of photodiodes. When aligned with the longitudinal axis of the cell the camera detected the movement of the 2 ends of the myocyte upon contraction (shortening and relengthening). […] When the myocyte was transilluminated, both ends of the cell were easily discriminated. Myocyte length and length change with respect to time for a single contraction was measured by determining the pixels in which the appropriate transitions between light and dark occurred. The line scan camera was calibrated with a stage micrometer scaled in 10 μm divisions. The signals from the camera were directed to a Hewlett Packard computer (Model Vectra RS/20C). […]

[2] = test system: ventricular myocyte membrane adenylyl cyclase; experiment: Adenylyl cyclase activity of ventricular myocyte membranes; format: biochemical, rat
Method: After a 3-4 hour incubation period, myocytes were harvested by placing the culture dishes on ice; aspirating and discarding the culture medium; scraping the attached cells into 1 ml of ice cold buffer (pH 7.4) containing 10 mM HEPES and 1 mM dithiothreitol (DTT); and transferring the mixture to a 40 ml centrifuge tube. The culture dishes were rinsed twice with buffer, and the rinses were added to the centrifuge tube. The myocytes were centrifuged at 45,000 x g for 45 minutes and the supernatant was discarded. The pellet was resuspended in 40 mM HEPES (pH 7.4) to yield 3.5-4 mg protein/ml and homogenized with a small clearance Dounce tissue grinder (8 strokes). The membranes were centrifugated as described above, resuspended (3-4 mg protein/ml) in 40 mM HEPES (pH 7.4), and assayed for adenylyl cyclase activity immediately or stored at -80° C. and assayed within 10 days.
The assay system used to measure adenylyl cyclase activity minimizes the formation of endogenous adenosine. The assay used was essentially as described by Romano et al. (supra). Myocyte membranes (15-25 μg protein) were incubated in 50 μl of a buffer containing 40 mM HEPES (pH 7.4), 5 mM MgCl2, 1 mM DTT, 5.5 mM KCl, 0.1 mM 2'-deoxy-cAMP (dcAMP), 0.1 mM 2'-deoxy ATP (dATP), 20 mM phosphoenolpyruvate, 2 units pyruvate kinase, 0.25 units adenosine deaminase, 1 mM ascorbic acid, 100 mM NaCl, 0.1 mM ethyleneglycol-bis (β-aminoethylether) N,N,N',N',-tetroaceticacid (EGTA), 10 μM guanosine 5'-triphosphate (GTP), and ~2×10^6 counts/minutes of [α-^32 P]dATP for 20 minutes at 30° C. The reaction was stopped by adding 40 μl of a solution containing 2% sodium dodecyl sulfate (SDS), 45 mM ATP, 1.3 mM cAMP, and [^3 H]dcAMP (~4000 count/min) and by boiling for 2 minutes.

[3] = Table 6, 10^-5 M SHA-082, 10^-5 M NECA, 10^-4 M adenosine, 2 × 10^-7 M DPCPX, 10^-5 M CGS-15943, mean ± SE, N = 6

`C#CCn1c(=O)c2c(ncn2C)n(C)c1=O` [DMPX, 3,7-dimethyl-1-propargylxanthine] was tested, and the “effect on the increase in cAMP caused by 10 μM CGS-21680” value [1] was “prevented”.

Work on `CCNC(=O)[C@H]1O[C@@H](n2cnc3c(N)ncnc32)[C@H](O)[C@@H]1O` [NECA, N-ethylcarboxamidoadenosine] yielded an activation at 10 µM (rat ventricular myocytes; read-out: increase in DS) of 21%, an activation at 10 µM (rat ventricular myocytes; read-out: increase in LC) of 24% and an activation at 10 µM (rat ventricular myocytes; read-out: increase in TPS) of 20%. For the same compound, the activation at 10 µM (rat ventricular myocytes; read-out: increase in TR) was 28%, the “+dL/dtmax, maximal rate of shortening” value (rat ventricular myocytes; [3]) was 203 ± 9 μm/msec and the “-dL/dtmax, maximal rate of relaxation” value (rat ventricular myocytes; [3]) was 149 ± 12 μm/msec. For the same compound, the “DS, duration of shortening” value (rat ventricular myocytes; [3]) was 350 ± 15 ms, the “LC, maximum length change (shortening) with contraction” value (rat ventricular myocytes; [3]) was 21 ± 2 μm and the “TPS, time-to-peak shortening” value (rat ventricular myocytes; [3]) was 140 ± 5 ms. The “TR, time to 75% relaxation” value (rat ventricular myocytes; [3]) was 340 ± 12 ms, the “contractile responses in the presence of 10 μM CGS-15943” value (rat ventricular myocytes; agonist at 10 μM) was “not observed” and the “increase in adenylyl cyclase activity” value ([2]; NECA 0 to 1 mM (FIG. 10)) was “approximately two-fold”. For the same compound, the EC50 ([2]; without DPCPX, read-out: EC50 for activation of cyclase) was 17 ± 5.7 µM.
